Values quoted from earlier work, collected in patent publication US11389471B2, “Systems and methods to improve organ or tissue function and organ or tissue transplant longevity” (Proterris Inc., priority 2014, dated 2022).

Conditions: CO alveolar concentration of 25 ppm; CFK equation

Q: With `[C-]#[O+]` [CO, carbon monoxide] as the compound, how does the “time to reach an equilibration point” value read?
A: about 20 hours
